{
  "source": "patent US5036008A",
  "about": "“Antitumor antibiotic BU-3285T” (Bristol-Myers Company, priority 1990, dated 1991)",
  "key": {"[1]": {"system": "RNA biosynthesis in L1210 leukemia cells", "test": "Inhibition of macromolecule biosynthesis, RNA (Table 7)", "type": "cell-based, murine", "conditions": "Mus musculus, labelled precursor, 15 min + 60 min, 37° C., read-out: IC50, RNA synthesis", "method": "(§1) Inhibitory effects of BU-3285T on macromolecule biosynthesis (DNA, RNA and protein) were determined in cultured L1210 murine leukemia cells. The cells (5×10^5 cells/ml) were incubated with the compound at 37° C. for 15 minutes and then further incubated for 60 minutes after the addition of labelled precursor, ^3 H-thymidine, ^14 C-uridine or ^3 H-leucine into the cultured mixture. After washing with chilled 5% trichloroacetic acid solution, the radioactivity incorporated into the acid-insoluble fraction of the cells was determined by a liquid scintillation counter."}, "[2]": {"system": "A549 (human lung carcinoma) cells", "test": "In vitro cytotoxicity (Table 14)", "type": "cell-based", "conditions": "A549, 72 h", "experimental": "(§4) B16-F10 (murine melanoma), HCT-116 (human colon carcinoma), A549 (human lung carcinoma) and A549/VP29 (an etoposide-resistant subline of A549) were grown in Eagle's MEM (Nissui) supplemented with FCS (fetal calf serum, 10%) and non-essential amino acids (B16-F10), or in McCoy's 5A medium (Gibco) with FCS (10%), essential and non-essential amino acids, vitamins and antibiotics (HCT-116 and both of A549) at 37° C. under a humidified atmosphere in a 5% CO2 incubator. Exponentially growing B16-F10, HCT-116 and A549 cells were harvested, counted and suspended in the culture medium at 1.5×10^4, 3×10^4 and 3×10^4 cells/ml, respectively. After planting 180 μl of cell suspension into wells of a 96-well microtiter plate on day 0, the test materials (20 μl) were added on day 1 and the plates were incubated for 72 hours. The cytotoxic activity was colorimetrically determined at 540 nm after staining viable cells with neutral red solution."}, "[3]": {"system": "DNA biosynthesis in L1210 leukemia cells", "test": "Inhibition of macromolecule biosynthesis, DNA (Table 15)", "type": "cell-based, murine", "conditions": "at 100 μg/ml, the highest concentration tested", "method": "Inhibitory effects of the above compounds on macromolecule (DNA, RNA and protein) biosynthesis were determined in cultured L1210 murine leukemia cells. The cells (5×10^5 cells/ml) were incubated with the test materials at 37° C. for 15 minutes and then further incubated for 60 minutes after the addition of labeled precursor, ^3 H-thymidine, ^14 C-uridine or ^3 H-leucine into the cultured mixture. After washing with chilled 5% trichloroacetic acid solution, the radioactivity incorporated into the acid-insoluble fraction of the cells was determined with a liquid scintillation counter."}, "[4]": {"system": "murine and human tumor cell lines", "test": "In vitro cytotoxicity, overall statement", "experimental": "(§5) After planting 180 μl of cell suspension into wells of a 96-well microtiter plate on day 0, the test materials (20 μl) were added on day 1 and the plates were incubated for 72 hours. The cytotoxic activity was colorimetrically determined at 540 nm after staining viable cells with neutral red solution."}, "[5]": {"system": "A549/VP29 (etoposide-resistant subline of A549) cells", "test": "In vitro cytotoxicity (Table 14)", "conditions": "A549/VP29, 72 hours, neutral red", "experimental": "as §5"}, "[6]": {"system": "Moser (human colorectal carcinoma) cells", "test": "In vitro cytotoxicity (Table 6)", "method": "(§2) BU-3285T was tested for in vitro cytotoxicity against several murine and human tumor cell lines and for in vivo antitumor activity in mice. Mitomycin C was used as a reference compound in both in vitro and in vivo experiments. B16-F10 (murine melanoma) and Moser (human colorectal carcinoma) cells were grown to the logarithmic phase in an enriched Eagle minimum essential medium supplemented with fetal calf serum (FCS, 10%) and kanamycin (60 μg/ml); HCT-116 (human colon carcinoma) cells were in McCoy's 5A medium supplemented with FCS (10%), penicillin (100 U/ml) and streptomycin (100 μg/ml); and P388 (murine lymphocytic leukemia) cells and its vincristine-resistant subline (P388/VCR) were in RPMI 1640 medium supplemented with FCS (10%), penicillin (100 U/ml) and streptomycin (100 μg/ml).\n(§3) B16-F10, Moser, HCT-116 and P388 cells were harvested and implanted into wells of a 96-well (for B16-F10, Moser and HCT-116 cells) or a 24-well (for P388 cells) tissue culture plate with test materials at the inoculum sizes of 3×10^4, 6 ×10^4, 6×10^4 and 2×10^4 cells/ml, respectively. They were incubated at 37° C. in a humidified atmosphere of 5% CO2 and 95% air for 72 hrs. […] For P388 cells, the number of viable cells was determined by a Coulter counter."}, "[7]": {"system": "P388/VCR (vincristine-resistant subline of P388) cells", "test": "In vitro cytotoxicity (Table 6)", "method": "as §2, §3"}, "[8]": {"system": "Aspergillus fumigatus IAM2530", "test": "In vitro antifungal activity, serial agar dilution", "conditions": "IAM2530, 40 h, pH 7", "experimental": "(§6) In vitro antifungal activity was determined against various fungi by the serial agar dilution method. Sabouraud dextrose agar (pH 7.0) was used for the experiment. The inoculum size was adjusted to 10^6 CFU/ml. After incubation at 28° C. for 40 hours, the minimum inhibitory concentration (MIC) was examined."}, "[9]": {"system": "HCT-116 (human colon carcinoma) cells", "test": "In vitro cytotoxicity (Table 14)", "type": "cell-based", "conditions": "HCT-116, 72 h", "experimental": "as §4"}, "A. fumigatus IAM2034": {"system": "A. fumigatus IAM2034", "test": "microbe, parasite or virus in culture", "conditions": "Aspergillus fumigatus, IAM2034, 40 h, pH 7", "experimental": "as §6"}, "[10]": {"system": "B16-F10 (murine melanoma) cells", "test": "In vitro cytotoxicity (Table 14)", "type": "cell-based", "conditions": "Mus musculus, B16-F10, 72 h", "experimental": "as §4"}, "A. flavus FA21436": {"system": "A. flavus FA21436", "test": "In vitro antifungal activity, serial agar dilution", "conditions": "Aspergillus flavus, FA21436, 40 h, pH 7", "experimental": "as §6"}, "C. neoformans IAM4514": {"system": "C. neoformans IAM4514", "test": "In vitro antifungal activity, serial agar dilution", "conditions": "Cryptococcus neoformans, IAM4514, 40 h, pH 7", "experimental": "as §6"}, "[11]": {"system": "Petriellidium boydii IF08078", "test": "In vitro antifungal activity, serial agar dilution", "conditions": "Scedosporium boydii, IF08078, 40 h, pH 7", "experimental": "as §6"}, "Solubility": {"test": "Solubility", "type": "physicochemical"}, "B16 melanoma": {"system": "B16 melanoma", "test": "In vivo antitumor activity against B16 melanoma (Table 10)", "experimental": "Female CDF1 mice were intraperitoneally inoculated with 0.4 ml of diluted ascitic fluid containing 10^6 lymphocytic leukemia P388 cells or 10^5 lymphoid leukemia L1210 cells and male BDF1 mice were intraperitoneally inoculated with 0.5 ml of 10% melanotic melanoma B16 brei."}, "[12]": {"system": "DNA biosynthesis in L1210 leukemia cells", "test": "Inhibition of macromolecule biosynthesis, DNA (Table 7)", "type": "cell-based, murine", "method": "as §1"}, "Candida albicans IAM4888": {"system": "Candida albicans IAM4888", "test": "In vitro antifungal activity, serial agar dilution", "conditions": "IAM4888, 40 h, pH 7", "experimental": "as §6"}, "[13]": {"system": "Cryptococcus neoformans D49", "test": "In vitro antifungal activity, serial agar dilution", "conditions": "D49, 40 h, pH 7", "experimental": "as §6"}, "[14]": {"system": "Blastomyces dermatidis D40", "test": "In vitro antifungal activity, serial agar dilution", "conditions": "D40, 40 h, pH 7", "experimental": "as §6"}, "Mucor spinosus IF05317": {"system": "Mucor spinosus IF05317", "test": "In vitro antifungal activity, serial agar dilution", "conditions": "IF05317, 40 h, pH 7", "experimental": "as §6"}, "Piricularia oryzae D91": {"system": "Piricularia oryzae D91", "test": "microbe, parasite or virus in culture", "type": "cell-based", "conditions": "40 h, pH 7"}},
  "note": "Entries after “also recorded” stand apart in the source; their conditions may differ.",
  "data": [
    {"compound": "CCCCC/C=C/C=C\\C=C/C(O)C(C)C(C/C=C/C1OC(=O)C=CC1O)OS(=O)(=O)O", "note": "(stereo not shown) [BU-3285T]", "values": [
      {"measurement": "IC50", "setting": "[1]", "value": 14.4, "unit": "µg/mL"},
      {"measurement": "IC50", "setting": "[2]", "value": 4.1, "unit": "µg/mL"},
      {"measurement": "inhibitory effect on DNA synthesis", "setting": "[3]", "value": "no significant inhibitory effect"},
      {"measurement": "cytotoxicity in vitro", "setting": "[4]; murine and human tumor cell lines", "value": "exhibits in vitro antifungal activity and cytotoxicity; also recorded: quite active"},
      {"measurement": "IC50 values against the murine and human tumor cell lines (range)", "setting": "[4]; range over cell lines of Table 14", "value": "1.9 to 38", "unit": "µg/mL"},
      {"measurement": "IC50", "setting": "[5]", "value": 17, "unit": "µg/mL"},
      {"measurement": "IC50", "setting": "[6]; Homo sapiens, 72 h", "value": 0.85, "unit": "µg/mL"},
      {"measurement": "cytotoxic activity, comparison among cell lines", "setting": "[6]; among B16-F10, HCT-116 and Moser", "value": "most potent cytotoxic activity against Moser cells"},
      {"measurement": "IC50", "setting": "[7]; Mus musculus, P388/VCR, 72 h", "value": 4.4, "unit": "µg/mL"},
      {"measurement": "cytotoxicity against P388/VCR compared with parent cells", "setting": "[7]; vs P388 parent", "value": "almost the same cytotoxicity"},
      {"measurement": "MIC", "setting": "[8]", "value": 25, "unit": "µg/mL"},
      {"measurement": "IC50", "setting": "[9]", "value": 1.9, "unit": "µg/mL"},
      {"measurement": "MIC", "setting": "A. fumigatus IAM2034", "value": "> 100", "unit": "µg/mL"},
      {"measurement": "IC50", "setting": "[10]", "value": 38, "unit": "µg/mL"},
      {"measurement": "MIC", "setting": "A. flavus FA21436", "value": 50, "unit": "µg/mL"},
      {"measurement": "MIC", "setting": "C. neoformans IAM4514", "value": 1.6, "unit": "µg/mL"},
      {"measurement": "MIC", "setting": "[11]", "value": 0.8, "unit": "µg/mL"},
      {"measurement": "solubility in acetone", "setting": "Solubility; acetone", "value": "slightly soluble"},
      {"measurement": "solubility in chloroform", "setting": "Solubility; chloroform", "value": "insoluble"},
      {"measurement": "solubility in dimethyl sulfoxide", "setting": "Solubility; dimethyl sulfoxide", "value": "soluble"},
      {"measurement": "solubility in ethanol", "setting": "Solubility; ethanol", "value": "soluble"},
      {"measurement": "solubility in ethyl acetate", "setting": "Solubility; ethyl acetate", "value": "slightly soluble"},
      {"measurement": "solubility in methanol", "setting": "Solubility; methanol", "value": "soluble"},
      {"measurement": "solubility in n-hexane", "setting": "Solubility; n-hexane", "value": "insoluble"},
      {"measurement": "solubility in water", "setting": "Solubility; water", "value": "soluble"},
      {"measurement": "activity compared with mitomycin C", "setting": "B16 melanoma; B16, in terms of minimum effective dose", "value": "somewhat weaker"},
      {"measurement": "in vivo antitumor activity", "setting": "B16 melanoma; B16 melanoma in mice", "value": "potent in vivo inhibitory activity; also recorded: good antitumor activity"},
      {"measurement": "IC50", "setting": "[12]; Mus musculus, L1210, 3H-thymidine, ^14 C-uridine or 3H-leucine precursor, 15 min + 60 min, 37° C., read-out: IC50, DNA synthesis", "value": "> 100", "unit": "µg/mL"},
      {"measurement": "inhibitory effect on DNA synthesis", "setting": "[12]; at 100 μg/ml, the highest concentration tested", "value": "no significant inhibitory effect"},
      {"measurement": "MIC", "setting": "Candida albicans IAM4888", "value": 25, "unit": "µg/mL"},
      {"measurement": "MIC", "setting": "[13]", "value": 1.6, "unit": "µg/mL"},
      {"measurement": "MIC", "setting": "[14]", "value": 12.5, "unit": "µg/mL"},
      {"measurement": "MIC", "setting": "Mucor spinosus IF05317", "value": 25, "unit": "µg/mL"},
      {"measurement": "MIC", "setting": "Piricularia oryzae D91", "value": 50, "unit": "µg/mL"}
    ]}
  ]
}
